One experiment has as its target GSK3β (H350L) (Homo sapiens (Human), UniProt P49841). The following applies: read-out: GSK3β Ki.
The target of experiment [1] is CDK2/Cyclin E1 full length (Homo sapiens (Human), UniProt P24941). Put plainly: CDK2/Cyclin E1 full length mobility shift assay. The experiment is classed as biochemical.

Sequence of GSK3β (H350L) (P49841 whole entry, stated change not applied): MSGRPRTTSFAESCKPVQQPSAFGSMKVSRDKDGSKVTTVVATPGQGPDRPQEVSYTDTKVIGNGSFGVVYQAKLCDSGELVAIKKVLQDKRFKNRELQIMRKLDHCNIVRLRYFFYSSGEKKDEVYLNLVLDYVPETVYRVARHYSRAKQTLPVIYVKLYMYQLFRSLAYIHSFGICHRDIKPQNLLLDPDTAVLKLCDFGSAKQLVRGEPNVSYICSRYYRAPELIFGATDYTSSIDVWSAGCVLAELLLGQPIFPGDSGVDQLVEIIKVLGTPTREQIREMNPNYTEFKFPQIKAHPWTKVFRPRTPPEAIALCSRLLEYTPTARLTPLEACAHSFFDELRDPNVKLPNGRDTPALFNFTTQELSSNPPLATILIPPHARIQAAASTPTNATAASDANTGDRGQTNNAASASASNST
Description for GSK3β (H350L): The assay was initiated with the addition of ATP, following 15 minutes pre-incubation of enzyme and inhibitor at room temperature in the reaction mixture. The reaction was stopped after 30 minutes at room temperature by the addition of 50 μL of 80 mM EDTA.

`COc1cc(CC(=O)Nc2cc([C@@H]3CC[C@H](OC(=O)N[C@H]4CC[C@@](C)(O)CC4)C3)[nH]n2)ccn1` [Example 568, (1S,3R)-3-(3-{[(2-methoxypyridin-4-yl)acetyl]amino}-1H-pyrazol-5-yl)cyclopentyl (cis-4-hydroxy-4-methylcyclohexyl)carbamate]: the figures for the Ki (on GSK3β (H350L); in experiment [1]) were 5.12 nM and 0.41 nM, respectively.

Regarding `COc1cc(CC(=O)Nc2cc([C@@H]3CC[C@H](OC(=O)N[C@H]4CC[C@](C)(O)CC4)C3)[nH]n2)ccn1` [Example 569, (1S,3R)-3-(3-{[(2-methoxypyridin-4-yl)acetyl]amino}-1H-pyrazol-5-yl)cyclopentyl (trans-4-hydroxy-4-methylcyclohexyl)carbamate], the results for the Ki (at GSK3β (H350L); in experiment [1]) were 4.31 nM and 1.25 nM, respectively.

With `COc1ccc(CC(=O)Nc2cc([C@@H]3CC[C@H](OC(=O)N[C@H]4CC[C@@](C)(O)CC4)C3)[nH]n2)cn1` [Example 570, (1S,3R)-3-(3-{[(6-methoxypyridin-3-yl)acetyl]amino}-1H-pyrazol-5-yl)cyclopentyl (cis-4-hydroxy-4-methylcyclohexyl)carbamate], the Ki (usually the dissociation constant of the complex between target and ligand, obtained from inhibition or displacement) at GSK3β (H350L) stood at 3.29 nM; in experiment [1], 0.35 nM.

`COc1ccc(CC(=O)Nc2cc([C@@H]3CC[C@H](OC(=O)N[C@H]4CC[C@](C)(O)CC4)C3)[nH]n2)cn1` [Example 571, (1S,3R)-3-(3-{[(6-methoxypyridin-3-yl)acetyl]amino}-1H-pyrazol-5-yl)cyclopentyl (trans-4-hydroxy-4-methylcyclohexyl)carbamate]: the Ki on GSK3β (H350L) was 2.28 nM; in experiment [1], 1.08 nM.

Consider `C[C@]1(O)CC[C@@H](NC(=O)O[C@@H]2CC[C@H](c3cc(NC(=O)Cc4cc(F)cc(F)c4)n[nH]3)C2)CC1` [Example 572, (1R,3S)-3-(3-{[(3,5-difluorophenyl)acetyl]amino}-1H-pyrazol-5-yl)cyclopentyl (cis-4-hydroxy-4-methylcyclohexyl)carbamate], for which the results for the Ki (at GSK3β (H350L); in experiment [1]) were 24.2 nM and 0.37 nM, respectively.

In the case of `C[C@]1(O)CC[C@H](NC(=O)O[C@@H]2CC[C@H](c3cc(NC(=O)Cc4cc(F)cc(F)c4)n[nH]3)C2)CC1` [Example 573, (1R,3S)-3-(3-{[(3,5-difluorophenyl)acetyl]amino}-1H-pyrazol-5-yl)cyclopentyl (trans-4-hydroxy-4-methylcyclohexyl)carbamate], the Ki on GSK3β (H350L) came out at 14.1 nM; in experiment [1], 0.83 nM.

For `C[C@H]1CCN1C(=O)O[C@@H]1CC[C@H](c2cc(NC(=O)c3cnnn3C)n[nH]2)C1` [Example 586, (1R,3S)-3-(3-{[(1-methyl-1H-1,2,3-triazol-5-yl)carbonyl]amino}-1H-pyrazol-5-yl)cyclopentyl (2S)-2-methylazetidine-1-carboxylate], the Ki at GSK3β (H350L) is 51.5 nM; in experiment [1] it was 0.88 nM.

`COCCn1nccc1C(=O)Nc1cc([C@H]2CC[C@@H](OC(=O)N3CC[C@@H]3C)C2)[nH]n1` [Example 594, (1R,3S)-3-[3-({[1-(2-methoxyethyl)-1H-pyrazol-5-yl]carbonyl}amino)-1H-pyrazol-5-yl]cyclopentyl (2S)-2-methylazetidine-1-carboxylate]: the Ki on GSK3β (H350L) was 14.3 nM; in experiment [1], 0.62 nM.

Take `Cc1cnc(CC(=O)Nc2cc([C@H]3CC[C@@H](OC(=O)N4CCC4(C)C)C3)[nH]n2)cn1` [Example 601, (1R,3S)-3-(3-{[(5-methylpyrazin-2-yl)acetyl]amino}-1H-pyrazol-5-yl)cyclopentyl 2,2-dimethylazetidine-1-carboxylate]: the values for the Ki (at GSK3β (H350L); in experiment [1]) were 7.32 nM and 0.39 nM, respectively.

With `C[C@H]1C[C@H](C)N1C(=O)O[C@@H]1CC[C@H](c2cc(NC(=O)Cc3cnn(C)c3)n[nH]2)C1` [Example 605, (1R,3S)-3-(3-{[(1-methyl-1H-pyrazol-4-yl)acetyl]amino}-1H-pyrazol-5-yl)cyclopentyl (2S,4S)-2,4-dimethylazetidine-1-carboxylate], the Ki was 9.89 nM on GSK3β (H350L) and 0.32 nM in experiment [1].

In the case of `Cc1cnc(CC(=O)Nc2cc([C@H]3CC[C@@H](OC(=O)N4[C@@H](C)C[C@@H]4C)C3)[nH]n2)o1` [Example 606, (1R,3S)-3-(3-{[(5-methyl-1,3-oxazol-2-yl)acetyl]amino}-1H-pyrazol-5-yl)cyclopentyl (2S,4S)-2,4-dimethylazetidine-1-carboxylate], the Ki at GSK3β (H350L) was 11.5 nM; in experiment [1], 0.63 nM.

As for `COc1cc(CC(=O)Nc2cc([C@@H]3CC[C@H](OC(=O)N4C[C@H](O)[C@H]4C)C3)[nH]n2)ccn1` [Example 611, (1S,3R)-3-(3-{[(2-methoxypyridin-4-yl)acetyl]amino}-1H-pyrazol-5-yl)cyclopentyl (2R,3S)-3-hydroxy-2-methylazetidine-1-carboxylate], the figures for the Ki (at GSK3β (H350L); in experiment [1]) were 13.9 nM and 1.67 nM, respectively.

On to `COc1cc(CC(=O)Nc2cc([C@H]3CC[C@@H](OC(=O)N4C[C@@H](O)[C@@H]4C)C3)[nH]n2)ccn1` [Example 612, (1R,3S)-3-(3-{[(2-methoxypyridin-4-yl)acetyl]amino}-1H-pyrazol-5-yl)cyclopentyl (2S,3R)-3-hydroxy-2-methylazetidine-1-carboxylate], for which the results for the Ki (at GSK3β (H350L); in experiment [1]) were 8.01 nM and 0.45 nM, respectively.

With `COc1ccc(CC(=O)Nc2cc([C@@H]3CC[C@H](OC(=O)N4C[C@@H](O)[C@@H]4C)C3)[nH]n2)cn1` [Example 614, (1S,3R)-3-(3-{[(6-methoxypyridin-3-yl)acetyl]amino}-1H-pyrazol-5-yl)cyclopentyl (2S,3R)-3-hydroxy-2-methylazetidine-1-carboxylate], the Ki on GSK3β (H350L) was 6.58 nM; in experiment [1], 1.66 nM.

Regarding `COc1ccc(CC(=O)Nc2cc([C@H]3CC[C@@H](OC(=O)N4C[C@H](O)[C@H]4C)C3)[nH]n2)cn1` [Example 616, (1R,3S)-3-(3-{[(6-methoxypyridin-3-yl)acetyl]amino}-1H-pyrazol-5-yl)cyclopentyl (2R,3S)-3-hydroxy-2-methylazetidine-1-carboxylate], the Ki amounted to 4.05 nM at GSK3β (H350L) and 0.28 nM in experiment [1].

With `C[C@H]1[C@H](O)CN1C(=O)O[C@@H]1CC[C@H](c2cc(NC(=O)Cc3cc(F)cc(F)c3)n[nH]2)C1` [Example 617, (1R,3S)-3-(3-{[(3,5-difluorophenyl)acetyl]amino}-1H-pyrazol-5-yl)cyclopentyl (2S,3R)-3-hydroxy-2-methylazetidine-1-carboxylate], the Ki is 7.18 nM at GSK3β (H350L) and 0.27 nM in experiment [1].

In the case of `CO[C@@H]1CN(C(=O)O[C@@H]2CC[C@H](c3cc(NC(=O)Cc4cc(C)no4)n[nH]3)C2)[C@H]1C` [Example 618, (1R,3S)-3-(3-{[(3-methyl-1,2-oxazol-5-yl)acetyl]amino}-1H-pyrazol-5-yl)cyclopentyl (2S,3R)-3-methoxy-2-methylazetidine-1-carboxylate], the Ki was determined as 8.57 nM at GSK3β (H350L) and 0.78 nM in experiment [1].

For `COc1cc(CC(=O)Nc2cc([C@H]3CC[C@@H](OC(=O)N4C[C@@H](OC)[C@@H]4C)C3)[nH]n2)ccn1` [Example 619, (1R,3S)-3-(3-{[(2-methoxypyridin-4-yl)acetyl]amino}-1H-pyrazol-5-yl)cyclopentyl (2S,3R)-3-methoxy-2-methylazetidine-1-carboxylate], the Ki on GSK3β (H350L) turned out to be 5.75 nM; in experiment [1] it was 0.42 nM.

Turning to `COc1ccc(CC(=O)Nc2cc([C@H]3CC[C@@H](OC(=O)N4C[C@@H](OC)[C@@H]4C)C3)[nH]n2)cn1` [Example 621, (1R,3S)-3-(3-{[(6-methoxypyridin-3-yl)acetyl]amino}-1H-pyrazol-5-yl)cyclopentyl (2S,3R)-3-methoxy-2-methylazetidine-1-carboxylate], the Ki on GSK3β (H350L) was found to be 2.77 nM; in experiment [1], 0.36 nM.

Turning to `Cc1ncc(CC(=O)Nc2cc([C@H]3CC[C@@H](OC(=O)N4C[C@@](C)(O)[C@@H]4C)C3)[nH]n2)s1` [Example 623, (1R,3S)-3-(3-{[(2-methyl-1,3-thiazol-5-yl)acetyl]amino}-1H-pyrazol-5-yl)cyclopentyl (2S,3R)-3-hydroxy-2,3-dimethylazetidine-1-carboxylate], the results for the Ki (on GSK3β (H350L); in experiment [1]) were 6.31 nM and 1.17 nM, respectively.

As to `COc1cc(CC(=O)Nc2cc([C@@H]3CC[C@H](OC(=O)N4C[C@@](C)(O)[C@@H]4C)C3)[nH]n2)ccn1` [Example 624, (1S,3R)-3-(3-{[(2-methoxypyridin-4-yl)acetyl]amino}-1H-pyrazol-5-yl)cyclopentyl (2S,3R)-3-hydroxy-2,3-dimethylazetidine-1-carboxylate], the Ki on GSK3β (H350L) was 16.3 nM; in experiment [1], 4.18 nM.

In the case of `COc1cc(CC(=O)Nc2cc([C@H]3CC[C@@H](OC(=O)N4C[C@@](C)(O)[C@@H]4C)C3)[nH]n2)ccn1` [Example 625, (1R,3S)-3-(3-{[(2-methoxypyridin-4-yl)acetyl]amino}-1H-pyrazol-5-yl)cyclopentyl (2S,3R)-3-hydroxy-2,3-dimethylazetidine-1-carboxylate], the Ki was found to be 4.97 nM on GSK3β (H350L) and 0.45 nM in experiment [1].

Take `COc1ccc(CC(=O)Nc2cc([C@H]3CC[C@@H](OC(=O)N4C[C@@](C)(O)[C@@H]4C)C3)[nH]n2)cn1` [Example 627, (1R,3S)-3-(3-{[(6-methoxypyridin-3-yl)acetyl]amino}-1H-pyrazol-5-yl)cyclopentyl (2S,3R)-3-hydroxy-2,3-dimethylazetidine-1-carboxylate]: the values for the Ki (at GSK3β (H350L); in experiment [1]) were 2.76 nM and 0.51 nM, respectively.

Turning to `C[C@H]1CCCN1C(=O)O[C@@H]1CC[C@H](c2cc(NC(=O)Cc3ccon3)n[nH]2)C1` [Example 628, (1R,3S)-3-{3-[(1,2-oxazol-3-ylacetyl)amino]-1H-pyrazol-5-yl}cyclopentyl (2S)-2-methylpyrrolidine-1-carboxylate], the results for the Ki (at GSK3β (H350L); in experiment [1]) were 20.8 nM and 0.92 nM, respectively.

In the case of `C[C@H]1CCCN1C(=O)O[C@@H]1CC[C@H](c2cc(NC(=O)Cc3cnco3)n[nH]2)C1` [Example 629, (1R,3S)-3-{3-[(1,3-oxazol-5-ylacetyl)amino]-1H-pyrazol-5-yl}cyclopentyl (2S)-2-methylpyrrolidine-1-carboxylate], the Ki on GSK3β (H350L) came out at 10.6 nM; in experiment [1] it was 0.4 nM.

The record behind these values is patent US11014911B2, “CDK2 inhibitors” (Pfizer Inc., priority 2019, dated 2021).
